How the values were obtained:
[1] = target: Vascular endothelial growth factor receptor 2 (Homo sapiens) (UniProt P35968); assay: Inhibition of KDR (unknown origin) at 5.5 uM by Caliper Mobility Shift Assay
[2] = target: Protein kinase C alpha type (Homo sapiens) (UniProt P17252); assay: Inhibition of PRKCA (unknown origin) at 5.5 uM by Caliper Mobility Shift Assay
[3] = target: T1, Activin receptor type-1 (Homo sapiens) (UniProt Q04771); assay: Inhibition of ACVR1 (ALK2) (unknown origin) at 5.5 uM by Caliper Mobility Shift Assay
T1 sequence (whole entry): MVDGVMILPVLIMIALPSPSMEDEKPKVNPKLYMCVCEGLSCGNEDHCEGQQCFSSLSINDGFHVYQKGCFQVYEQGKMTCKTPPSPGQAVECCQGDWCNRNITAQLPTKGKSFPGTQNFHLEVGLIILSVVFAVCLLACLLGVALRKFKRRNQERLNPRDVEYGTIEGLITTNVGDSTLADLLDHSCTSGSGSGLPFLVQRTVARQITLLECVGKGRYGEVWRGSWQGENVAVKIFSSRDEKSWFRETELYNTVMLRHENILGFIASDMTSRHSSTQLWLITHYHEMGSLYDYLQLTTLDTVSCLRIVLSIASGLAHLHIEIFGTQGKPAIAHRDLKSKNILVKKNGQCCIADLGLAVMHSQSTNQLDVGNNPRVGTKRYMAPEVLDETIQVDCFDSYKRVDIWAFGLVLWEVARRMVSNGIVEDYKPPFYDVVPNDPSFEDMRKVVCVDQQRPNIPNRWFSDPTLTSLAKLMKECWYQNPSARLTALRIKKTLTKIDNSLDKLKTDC

[4] = target: Serine/threonine-protein kinase WNK1 (Homo sapiens) (UniProt Q9H4A3); assay: Inhibition of WNK1 (unknown origin) at 5.5 uM by Caliper Mobility Shift Assay
[5] = target: T2, Ephrin type-B receptor 4 (Homo sapiens) (UniProt P54760); assay: Inhibition of EPHB4 (unknown origin) at 5.5 uM by Caliper Mobility Shift Assay
T2 sequence (whole entry): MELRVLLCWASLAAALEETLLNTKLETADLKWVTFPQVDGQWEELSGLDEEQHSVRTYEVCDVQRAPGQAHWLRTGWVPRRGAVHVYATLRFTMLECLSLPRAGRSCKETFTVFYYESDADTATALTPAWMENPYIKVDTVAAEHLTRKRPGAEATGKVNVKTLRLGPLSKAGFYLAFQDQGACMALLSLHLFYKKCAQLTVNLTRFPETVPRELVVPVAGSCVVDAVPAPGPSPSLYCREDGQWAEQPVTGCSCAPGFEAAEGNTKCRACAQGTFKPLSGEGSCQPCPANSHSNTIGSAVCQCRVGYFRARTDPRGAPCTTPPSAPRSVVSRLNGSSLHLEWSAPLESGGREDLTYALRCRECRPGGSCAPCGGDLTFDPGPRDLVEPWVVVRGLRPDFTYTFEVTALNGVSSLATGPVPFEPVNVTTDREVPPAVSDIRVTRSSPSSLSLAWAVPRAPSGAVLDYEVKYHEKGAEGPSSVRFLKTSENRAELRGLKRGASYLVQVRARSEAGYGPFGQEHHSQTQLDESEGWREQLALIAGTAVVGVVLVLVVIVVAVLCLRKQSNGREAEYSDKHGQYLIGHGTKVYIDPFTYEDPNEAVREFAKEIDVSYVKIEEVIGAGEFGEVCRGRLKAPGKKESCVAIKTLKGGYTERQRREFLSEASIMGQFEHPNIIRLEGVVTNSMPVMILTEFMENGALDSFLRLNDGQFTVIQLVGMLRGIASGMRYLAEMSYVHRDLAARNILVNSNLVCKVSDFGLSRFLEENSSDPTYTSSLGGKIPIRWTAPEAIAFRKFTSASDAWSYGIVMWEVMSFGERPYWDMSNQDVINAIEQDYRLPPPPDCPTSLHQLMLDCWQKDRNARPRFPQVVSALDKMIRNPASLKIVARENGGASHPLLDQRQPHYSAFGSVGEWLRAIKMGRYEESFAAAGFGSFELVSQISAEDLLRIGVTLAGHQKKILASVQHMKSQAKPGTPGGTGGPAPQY

[6] = target: Rho-associated protein kinase 2 (Homo sapiens) (UniProt O75116); assay: Inhibition of ROCK2 (unknown origin) at 5.5 uM by Caliper Mobility Shift Assay
[7] = target: Fibroblast growth factor receptor 3 (Homo sapiens) (UniProt P22607); assay: Inhibition of FGFR3 (unknown origin) at 5.5 uM by Caliper Mobility Shift Assay
[8] = target: Tyrosine-protein kinase JAK2 (Homo sapiens) (UniProt O60674); assay: Inhibition of JAK2 (unknown origin) at 5.5 uM by Caliper Mobility Shift Assay
[9] = target: T3, MAP kinase-activated protein kinase 5 (Homo sapiens) (UniProt Q8IW41); assay: Inhibition of MAPKAPK5 (MK5) (unknown origin) at 5.5 uM by Caliper Mobility Shift Assay
T3 sequence (whole entry): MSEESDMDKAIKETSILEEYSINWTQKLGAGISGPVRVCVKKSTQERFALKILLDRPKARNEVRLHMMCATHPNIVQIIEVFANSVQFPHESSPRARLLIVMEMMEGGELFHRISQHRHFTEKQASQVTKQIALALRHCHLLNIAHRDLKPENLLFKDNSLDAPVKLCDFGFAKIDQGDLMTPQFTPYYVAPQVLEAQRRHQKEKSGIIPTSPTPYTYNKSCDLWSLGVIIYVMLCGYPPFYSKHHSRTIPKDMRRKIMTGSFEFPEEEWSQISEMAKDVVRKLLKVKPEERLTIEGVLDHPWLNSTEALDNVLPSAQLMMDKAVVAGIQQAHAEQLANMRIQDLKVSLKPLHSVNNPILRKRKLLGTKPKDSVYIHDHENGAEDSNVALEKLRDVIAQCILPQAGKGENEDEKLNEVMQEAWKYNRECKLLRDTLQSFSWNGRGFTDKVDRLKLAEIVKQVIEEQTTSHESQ

Homo sapiens = species on record: Homo sapiens; assay: Selectivity ratio of IC50 for JNK3 (unknown origin) to IC50 for p38alpha (unknown origin)

Vascular endothelial growth factor receptor 2 (Homo sapiens), sequence (P35968 whole entry): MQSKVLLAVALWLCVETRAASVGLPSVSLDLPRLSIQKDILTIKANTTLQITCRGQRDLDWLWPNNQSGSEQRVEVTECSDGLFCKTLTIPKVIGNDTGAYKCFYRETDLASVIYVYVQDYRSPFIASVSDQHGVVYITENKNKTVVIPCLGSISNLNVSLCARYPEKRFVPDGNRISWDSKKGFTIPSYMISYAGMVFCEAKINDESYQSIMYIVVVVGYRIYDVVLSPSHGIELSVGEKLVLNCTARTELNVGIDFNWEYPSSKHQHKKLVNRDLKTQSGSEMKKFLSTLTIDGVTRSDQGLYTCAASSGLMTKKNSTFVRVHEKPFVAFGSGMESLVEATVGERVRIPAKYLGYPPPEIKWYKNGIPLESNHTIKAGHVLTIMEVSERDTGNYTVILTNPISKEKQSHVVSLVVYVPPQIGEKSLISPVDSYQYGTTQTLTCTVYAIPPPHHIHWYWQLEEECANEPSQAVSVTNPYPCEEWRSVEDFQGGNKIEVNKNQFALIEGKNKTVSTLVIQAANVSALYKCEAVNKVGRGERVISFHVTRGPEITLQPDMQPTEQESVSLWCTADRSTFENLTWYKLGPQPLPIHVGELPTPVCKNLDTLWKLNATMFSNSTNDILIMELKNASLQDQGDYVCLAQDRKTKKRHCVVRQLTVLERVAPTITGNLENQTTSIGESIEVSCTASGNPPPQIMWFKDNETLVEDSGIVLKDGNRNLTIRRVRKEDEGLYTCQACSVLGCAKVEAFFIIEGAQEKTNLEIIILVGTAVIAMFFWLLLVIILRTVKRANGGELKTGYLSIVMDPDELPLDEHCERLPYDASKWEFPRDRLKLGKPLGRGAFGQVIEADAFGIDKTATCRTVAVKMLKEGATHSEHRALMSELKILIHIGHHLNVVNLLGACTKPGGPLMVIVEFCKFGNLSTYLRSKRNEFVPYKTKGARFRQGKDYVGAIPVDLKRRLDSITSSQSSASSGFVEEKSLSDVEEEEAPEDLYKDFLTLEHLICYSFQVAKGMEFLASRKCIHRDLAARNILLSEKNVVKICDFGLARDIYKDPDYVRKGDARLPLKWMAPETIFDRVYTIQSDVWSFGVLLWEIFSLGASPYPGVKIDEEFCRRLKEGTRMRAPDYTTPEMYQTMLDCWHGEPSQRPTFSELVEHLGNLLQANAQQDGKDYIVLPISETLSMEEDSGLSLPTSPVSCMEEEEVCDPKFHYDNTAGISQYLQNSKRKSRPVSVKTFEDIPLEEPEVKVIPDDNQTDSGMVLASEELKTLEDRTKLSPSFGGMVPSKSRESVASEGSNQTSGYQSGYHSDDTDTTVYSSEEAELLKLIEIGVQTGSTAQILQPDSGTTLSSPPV
Serine/threonine-protein kinase WNK1 (Homo sapiens), sequence (Q9H4A3 whole entry, looked up): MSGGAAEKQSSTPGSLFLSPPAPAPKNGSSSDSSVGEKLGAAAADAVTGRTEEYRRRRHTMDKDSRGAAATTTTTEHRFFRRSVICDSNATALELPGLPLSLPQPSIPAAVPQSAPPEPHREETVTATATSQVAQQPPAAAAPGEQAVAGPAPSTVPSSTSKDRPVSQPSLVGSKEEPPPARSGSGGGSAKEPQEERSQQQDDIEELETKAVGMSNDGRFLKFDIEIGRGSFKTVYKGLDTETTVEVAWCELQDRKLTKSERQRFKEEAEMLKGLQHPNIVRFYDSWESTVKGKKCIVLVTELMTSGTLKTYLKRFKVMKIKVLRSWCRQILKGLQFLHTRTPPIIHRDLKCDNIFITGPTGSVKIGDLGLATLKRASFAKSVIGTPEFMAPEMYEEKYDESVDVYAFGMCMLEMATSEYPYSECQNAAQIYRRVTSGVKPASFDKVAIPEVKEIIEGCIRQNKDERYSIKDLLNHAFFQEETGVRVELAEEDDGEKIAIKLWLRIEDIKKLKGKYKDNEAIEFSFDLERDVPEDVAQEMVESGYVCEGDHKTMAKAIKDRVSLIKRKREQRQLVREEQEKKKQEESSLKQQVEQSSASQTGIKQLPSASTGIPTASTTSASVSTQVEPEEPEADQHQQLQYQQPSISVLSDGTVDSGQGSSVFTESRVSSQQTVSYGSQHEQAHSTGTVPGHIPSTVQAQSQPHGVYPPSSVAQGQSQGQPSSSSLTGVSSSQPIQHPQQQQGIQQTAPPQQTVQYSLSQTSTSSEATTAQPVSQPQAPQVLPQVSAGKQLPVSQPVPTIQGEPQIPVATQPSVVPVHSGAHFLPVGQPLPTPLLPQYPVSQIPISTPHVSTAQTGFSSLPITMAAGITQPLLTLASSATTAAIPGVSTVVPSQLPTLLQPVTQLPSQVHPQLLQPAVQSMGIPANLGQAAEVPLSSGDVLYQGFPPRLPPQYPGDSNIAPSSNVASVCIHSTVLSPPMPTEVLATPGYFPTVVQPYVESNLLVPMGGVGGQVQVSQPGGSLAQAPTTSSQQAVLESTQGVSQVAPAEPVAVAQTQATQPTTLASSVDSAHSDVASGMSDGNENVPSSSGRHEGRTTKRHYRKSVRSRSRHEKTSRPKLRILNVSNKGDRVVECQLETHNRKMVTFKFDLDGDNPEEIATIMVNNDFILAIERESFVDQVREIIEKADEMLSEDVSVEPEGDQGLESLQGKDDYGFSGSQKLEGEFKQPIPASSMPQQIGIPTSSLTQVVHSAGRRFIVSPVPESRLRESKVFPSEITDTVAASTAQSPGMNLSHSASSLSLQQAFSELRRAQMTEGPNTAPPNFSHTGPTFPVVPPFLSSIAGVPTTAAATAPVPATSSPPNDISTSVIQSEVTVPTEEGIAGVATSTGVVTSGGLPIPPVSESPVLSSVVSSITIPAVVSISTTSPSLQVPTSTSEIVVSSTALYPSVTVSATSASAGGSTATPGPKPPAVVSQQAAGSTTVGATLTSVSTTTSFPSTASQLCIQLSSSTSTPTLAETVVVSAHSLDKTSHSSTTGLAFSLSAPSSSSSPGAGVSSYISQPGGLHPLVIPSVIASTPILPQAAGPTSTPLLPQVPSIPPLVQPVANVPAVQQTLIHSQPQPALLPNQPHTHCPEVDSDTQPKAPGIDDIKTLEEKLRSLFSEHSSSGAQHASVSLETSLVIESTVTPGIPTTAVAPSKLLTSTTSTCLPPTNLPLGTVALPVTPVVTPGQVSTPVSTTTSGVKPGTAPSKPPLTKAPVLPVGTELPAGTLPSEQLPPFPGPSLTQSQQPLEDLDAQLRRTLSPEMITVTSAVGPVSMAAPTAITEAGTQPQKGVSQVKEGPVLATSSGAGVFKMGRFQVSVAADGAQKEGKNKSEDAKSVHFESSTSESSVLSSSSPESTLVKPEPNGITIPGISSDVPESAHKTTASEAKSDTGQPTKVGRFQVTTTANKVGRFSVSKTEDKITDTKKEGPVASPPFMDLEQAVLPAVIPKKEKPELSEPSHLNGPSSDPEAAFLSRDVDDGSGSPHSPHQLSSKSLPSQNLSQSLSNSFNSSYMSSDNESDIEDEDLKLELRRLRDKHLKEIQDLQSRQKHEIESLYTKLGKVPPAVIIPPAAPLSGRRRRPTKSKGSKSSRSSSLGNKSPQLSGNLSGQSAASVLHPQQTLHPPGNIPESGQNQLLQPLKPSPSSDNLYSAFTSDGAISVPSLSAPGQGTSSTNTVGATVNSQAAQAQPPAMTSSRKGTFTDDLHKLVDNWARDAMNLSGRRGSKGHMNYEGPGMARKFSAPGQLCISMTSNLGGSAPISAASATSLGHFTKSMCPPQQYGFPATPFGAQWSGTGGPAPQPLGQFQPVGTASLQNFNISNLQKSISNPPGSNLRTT
Fibroblast growth factor receptor 3 (Homo sapiens), sequence (P22607 23-806 limits assumed): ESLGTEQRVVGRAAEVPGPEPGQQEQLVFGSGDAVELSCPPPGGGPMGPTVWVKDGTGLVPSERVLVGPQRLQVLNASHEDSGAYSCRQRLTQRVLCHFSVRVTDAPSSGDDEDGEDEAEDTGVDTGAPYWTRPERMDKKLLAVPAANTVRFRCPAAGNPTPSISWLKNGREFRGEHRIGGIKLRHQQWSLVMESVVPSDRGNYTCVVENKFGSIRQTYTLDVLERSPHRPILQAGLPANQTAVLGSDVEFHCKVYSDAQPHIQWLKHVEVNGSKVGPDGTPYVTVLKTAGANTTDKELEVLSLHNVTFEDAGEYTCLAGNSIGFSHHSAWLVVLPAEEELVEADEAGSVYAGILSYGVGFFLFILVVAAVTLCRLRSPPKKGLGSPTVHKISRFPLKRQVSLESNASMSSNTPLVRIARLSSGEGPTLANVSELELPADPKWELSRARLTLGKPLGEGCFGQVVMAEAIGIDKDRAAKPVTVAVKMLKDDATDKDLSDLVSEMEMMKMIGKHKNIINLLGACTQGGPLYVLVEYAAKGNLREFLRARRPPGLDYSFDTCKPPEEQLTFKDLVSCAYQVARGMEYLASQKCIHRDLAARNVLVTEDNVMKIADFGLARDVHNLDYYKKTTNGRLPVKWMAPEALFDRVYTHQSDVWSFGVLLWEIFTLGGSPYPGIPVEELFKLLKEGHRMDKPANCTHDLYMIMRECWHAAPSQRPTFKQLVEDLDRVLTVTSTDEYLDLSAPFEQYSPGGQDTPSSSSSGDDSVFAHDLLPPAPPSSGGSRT

| Structure (SMILES) | inhibition [1] [%] | inhibition [2] [%] | inhibition [3] [%] | inhibition [4] [%] | inhibition [5] [%] | inhibition [6] [%] | inhibition [7] [%] | inhibition [8] [%] | inhibition [9] [%] | Ratio IC50 (Homo sapiens) |
| --- | --- | --- | --- | --- | --- | --- | --- | --- | --- | --- |
| CC(=O)Nc1cc(-c2c(-c3ccc(F)cc3)nc(S/C=C\C(=O)O)n2C2CCCCC2)ccn1 | < 50 | < 50 | < 50 | < 50 | < 50 | < 50 | < 50 | < 50 | < 50 | 0.8 |
| CC(=O)Nc1cc(-c2c(-c3ccc(F)cc3)nc(Sc3cccc(I)n3)n2C2CCCCC2)ccn1 | < 50 | < 50 | < 50 | < 50 | < 50 | < 50 | < 50 | < 50 | < 50 | 4.3 |

Further lines, results first:

| inhibition [1] [%] | inhibition [2] [%] | inhibition [3] [%] | inhibition [4] [%] | inhibition [5] [%] | inhibition [6] [%] | inhibition [7] [%] | inhibition [8] [%] | inhibition [9] [%] | Ratio IC50 (Homo sapiens) | Structure (SMILES) |
| --- | --- | --- | --- | --- | --- | --- | --- | --- | --- | --- |
| < 50 | < 50 | < 50 | < 50 | < 50 | < 50 | < 50 | < 50 | < 50 | 0.2 | CC(=O)Nc1cc(-c2c(-c3ccc(F)cc3)nc(S/C=C\C(=O)O)n2CC2CCCO2)ccn1 (racemic) |
| < 50 | < 50 | < 50 | < 50 | < 50 | < 50 | < 50 | < 50 | < 50 | 14.9 | COC(Cn1c(SC2CCC(C(=O)O)CC2O)nc(-c2ccc(F)cc2)c1-c1ccnc(NC(C)=O)c1)OC (stereo not given) |
| < 50 | < 50 | < 50 | < 50 | < 50 | < 50 | < 50 | < 50 | < 50 | 0.7 | CC(=O)Nc1cc(-c2c(-c3ccc(F)cc3)nc(S/C=C\C(=O)O)n2C2CC2)ccn1 |
